In this assay the target is T1, Recombinant human TLR7 (Homo sapiens, UniProt Q9NYK1).
T1 construct: expressed in transfected cells; host or cells: HEK293 cell line stably expressing the pNiFty2-SEAP reporter plasmid; TLR7 in vector pUNO, blasticidin selection
T1 sequence (Q9NYK1 27-1049): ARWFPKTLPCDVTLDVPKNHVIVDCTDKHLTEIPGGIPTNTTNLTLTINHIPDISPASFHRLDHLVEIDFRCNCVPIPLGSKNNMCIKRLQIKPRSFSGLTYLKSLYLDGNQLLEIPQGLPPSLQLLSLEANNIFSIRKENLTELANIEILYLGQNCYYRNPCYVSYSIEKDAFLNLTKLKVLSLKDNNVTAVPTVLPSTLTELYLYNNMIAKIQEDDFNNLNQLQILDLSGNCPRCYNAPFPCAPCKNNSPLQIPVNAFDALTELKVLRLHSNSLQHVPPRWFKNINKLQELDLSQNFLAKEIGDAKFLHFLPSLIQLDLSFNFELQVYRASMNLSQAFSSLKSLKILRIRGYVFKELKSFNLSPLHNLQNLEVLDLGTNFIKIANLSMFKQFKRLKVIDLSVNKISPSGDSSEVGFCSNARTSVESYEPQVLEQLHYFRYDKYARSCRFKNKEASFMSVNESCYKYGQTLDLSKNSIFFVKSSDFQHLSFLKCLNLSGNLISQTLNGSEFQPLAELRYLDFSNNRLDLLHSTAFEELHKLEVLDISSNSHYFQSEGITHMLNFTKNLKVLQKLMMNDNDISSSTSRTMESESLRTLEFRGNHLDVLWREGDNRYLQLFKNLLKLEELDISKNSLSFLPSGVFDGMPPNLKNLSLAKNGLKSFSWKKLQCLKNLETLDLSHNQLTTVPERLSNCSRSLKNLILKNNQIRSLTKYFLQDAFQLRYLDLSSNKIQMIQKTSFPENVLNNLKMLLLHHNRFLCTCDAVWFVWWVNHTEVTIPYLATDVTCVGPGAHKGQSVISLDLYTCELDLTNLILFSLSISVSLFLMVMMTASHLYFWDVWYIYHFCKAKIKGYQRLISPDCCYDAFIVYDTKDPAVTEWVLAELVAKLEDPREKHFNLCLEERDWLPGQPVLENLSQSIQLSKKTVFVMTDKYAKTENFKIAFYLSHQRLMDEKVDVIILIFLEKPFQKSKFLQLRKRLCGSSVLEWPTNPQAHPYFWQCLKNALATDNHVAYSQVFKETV
Description: Human TLR7 assay (HEK293 SEAP reporter). Type of assay: cell-based. To be noted: degree of TLR7 activation; SEAP induction in HEK293 cells stably expressing recombinant human TLR7 and pNiFty2-SEAP reporter, overnight incubation at 37° C., 0.1% (v/v) DMSO. How it is done:
The ability of compounds to activate TLR7 in vitro was assessed using the human TLR7 assay described below.
Recombinant human TLR7 was stably expressed in a HEK293 cell line already stably expressing the pNiFty2-SEAP reporter plasmid; integration of the reporter gene was maintained by selection with the antibiotic zeocin. The most common variant sequence of human TLR7 (represented by the EMBL sequence AF240467) was cloned into the mammalian cell expression vector pUNO and transfected into this reporter cell-line. Transfectants with stable expression were selected using the antibiotic blasticidin. In this reporter cell-line, expression of secreted alkaline phosphatase (SEAP) is controlled by an NFkB/ELAM-1 composite promoter comprising five NFkB sites combined with the proximal ELAM-1 promoter. TLR signaling leads to the translocation of NFkB and activation of the promoter results in expression of the SEAP gene. TLR7-specific activation was assessed by determining the level of SEAP produced following overnight incubation of the cells at 37° C. with the standard compound in the presence of 0.1% (v/v) dimethylsulfoxide (DMSO). Concentration dependent induction of SEAP production by compounds was expressed as the concentration of compound which produced half of the maximal level of SEAP induction for that compound (EC50).

Structures can show the parent of a compound that is named as a salt.

On to `CCCCCNc1nc(N)nc(C)c1Cc1ccc(OCCCN(C)C)cc1` [Example 4], for which the EC50 (as a rule, the concentration needed to bring the measured effect to its halfway point) was 63.1 nM.

`CCCCCNc1nc(N)nc(C)c1Cc1cc(C(=O)OC)ccc1F` [Example 17, Methyl 3-((2-amino-4-methyl-6-(pentylamino)pyrimidin-5-yl)methyl)-4-fluorobenzoate]: the EC50 was 3160 nM.

Consider `CCCCCNc1nc(N)nc(C)c1Cc1cccc(OCCCN(C)C)c1` [Example 25], for which the EC50 is 794 nM.

Regarding `CCCCCNc1nc(N)nc(C)c1Cc1ccc(OCCN2CCCCC2)cc1` [Example 5, 6-Methyl-N^4-pentyl-5-(4-(2-(piperidin-1-yl)ethoxy)benzyl)pyrimidine-2,4-diamine], the EC50 was 126 nM.

Consider `CCCCCNc1nc(N)nc(C)c1Cc1cccc(O)c1` [Example 24, 3-((2-Amino-4-methyl-6-(pentylamino)pyrimidin-5-yl)methyl)phenol], for which the EC50 was 5010 nM.

As for `CCCCCNc1nc(N)nc(C)c1Cc1ccc(OCCCN(C)C)cc1C` [Example 33, 5-(4-(3-(Dimethylamino)propoxy)-2-methylbenzyl)-6-methyl-N^4-pentylpyrimidine-2,4-diamine], the EC50 was 251 nM.

Take `CCC[C@@H](CO)Nc1nc(N)nc(C)c1Cc1ccc(C(=O)OCCCCN(C)C)cc1OC` [Example 15, (S)-4-(Dimethylamino)butyl 4-((2-amino-4-(1-hydroxypentan-2-yl-amino)-6-methylpyrimidin-5-yl)methyl)-3-methoxybenzoate benzenesulfonate salt]: the EC50 is 126 nM.

As for `CCCCCNc1nc(N)nc(C)c1Cc1ccccc1OC` [Example 19, 5-(2-Methoxybenzyl)-6-methyl-N4-pentylpyrimidine-2,4-diamine], the EC50 is 63.1 nM.

For the molecule `CCCCCNc1nc(N)nc(C)c1Cc1ccc(OCCCN2CCN(C)CC2)cc1` [Example 10, 6-Methyl-5-(4-(3-(4-methylpiperazin-1-yl)propoxy)benzyl)-V-pentylpyrimidine-2,4-diamine], the EC50 was 79.4 nM.

For the molecule `CCCCCNc1nc(N)nc(C)c1Cc1ccccc1OCC` [Example 21, 5-(2-Ethoxybenzyl)-6-methyl-N^4-pentylpyrimidine-2,4-diamine], the EC50 was 316 nM.

On to `CCCCCNc1nc(N)nc(C)c1Cc1ccc(OC)cc1` [Example 1, 5-(4-Methoxybenzyl)-6-methyl-N^4-pentylpyrimidine-2,4-diamine], for which the EC50 was 2000 nM.

Consider `CCCCCNc1nc(N)nc(C)c1Cc1ccc(OCCN2CCCC2)cc1` [Example 6, 6-Methyl-N^4-pentyl-5-(4-(2-(pyrrolidin-1-yl)ethoxy)benzyl)pyrimidine-2,4-diamine], for which the EC50 was 100 nM.

On to `CCCCCNc1nc(N)nc(C)c1Cc1ccc(CCCCN(C)C)cc1OC` [Example 39, 5-(4-(4-(Dimethylamino)butyl)-2-methoxybenzyl)-6-methyl-N^4-pentylpyrimidine-2,4-diamine], for which the EC50 is 3.98 nM.

Turning to `CCCCCNc1nc(N)nc(C)c1Cc1ccc(OCCN(C)Cc2ccccc2)cc1` [Example 7, 5-(4-(2-(Benzyl(methyl)amino)ethoxy)benzyl)-6-methyl-N^4-pentyl-pyrimidine-2,4-diamine], the EC50 was 631 nM.

On to `CCCCCNc1nc(N)nc(C)c1Cc1cccc(OCCN2CCCCC2)c1` [Example 26, 6-Methyl-N^4-pentyl-5-(3-(2-(piperidin-1-yl)ethoxy)benzyl)pyrimidine-2,4-diamine], for which the EC50 is 631 nM.

Consider `CCCCCNc1nc(N)nc(C)c1Cc1cccc(OCCN(C)C)c1` [Example 27, 5-(3-(2-(Dimethylamino)ethoxy)benzyl)-6-methyl-N^4-pentylpyrimidine-2,4-diamine], for which the EC50 is 398 nM.

As for `CCCCCNc1nc(N)nc(C)c1Cc1ccc(O)cc1` [Example 2, 4-(2-Amino-4-methyl-6-pentylamino-pyrimidin-5-ylmethyl)-phenol], the EC50 is 1260 nM.

`CCCCCNc1nc(N)nc(C)c1Cc1cc(C(=O)OC)ccc1OC` [Example 16, Methyl 3-((2-amino-4-methyl-6-(pentylamino)pyrimidin-5-yl)methyl)-4-methoxybenzoate]: the EC50 was 50.1 nM.

For `CCCCCNc1nc(N)nc(C)c1Cc1ccc(CCCN(C)C)cc1` [Example 31, 5-(4-(3-(Dimethylamino)propyl)benzyl)-6-methyl-N^4-pentylpyrimidine-2,4-diamine], the EC50 was 100 nM.

In the case of `CCCCCNc1nc(N)nc(C)c1Cc1cccc(CCCN(C)C)c1` [Example 32, 5-(3-(3-(Dimethylamino)propyl)benzyl)-6-methyl-N^4-pentylpyrimidine-2,4-diamine], the EC50 is 251 nM.

Consider `CCCCCNc1nc(N)nc(C)c1Cc1ccc(OCCCO)cc1OC` [Example 36, 3-(4-((2-Amino-4-methyl-6-(pentylamino)pyrimidin-5-yl)methyl)-3-methoxyphenoxy)propan-1-ol], for which the EC50 was 50.1 nM.

As to `CCCCCNc1nc(N)nc(C)c1Cc1ccc(OCCCO)cc1` [Example 8, 3-(4-((2-Amino-4-methyl-6-(pentylamino)pyrimidin-5-yl)methyl)-phenoxy)propan-1-ol], the EC50 is 501 nM.

As for `CCCCCNc1nc(N)nc(C)c1Cc1cccc(OC)c1` [Example 23, 5-(3-Methoxybenzyl)-6-methyl-N4-pentylpyrimidine-2,4-diamine], the EC50 is 2510 nM.

Regarding `CCCCCNc1nc(N)nc(C)c1Cc1ccccc1OCCCN(C)C` [Example 22], the EC50 was 1260 nM.

On to `CCCCCNc1nc(N)nc(C)c1Cc1ccc(OCCCN2CCCC2)cc1` [Example 9, 6-Methyl-N^4-pentyl-5-(4-(3-(pyrrolidin-1-yl)propoxy)benzyl)pyrimidine-2,4-diamine], for which the EC50 was 63.1 nM.

Take `CCC[C@@H](CO)Nc1nc(N)nc(C)c1Cc1ccc(C(=O)OC)cc1OC` [Example 13, (S)-Methyl 4-((2-amino-4-(1-hydroxypentan-2-ylamino)-6-methyl-pyrimidin-5-yl)methyl)-3-methoxybenzoate]: the EC50 is 100 nM.

`CCCCCNc1nc(N)nc(C)c1Cc1ccc(OCCCN2CCOCC2)cc1OC` [Example 37, 5-(2-Methoxy-4-(3-morpholinopropoxy)benzyl)-6-methyl-N^4-pentylpyrimidine-2,4-diamine]: the EC50 is 7.94 nM.

As for `CCCCCNc1nc(N)nc(C)c1Cc1cccc(OCCN2CCCC2)c1` [Example 28, 6-Methyl-N^4-pentyl-5-(3-(2-(pyrrolidin-1-yl)ethoxy)benzyl)pyrimidine-2,4-diamine], the EC50 is 1260 nM.

On to `CCCCCNc1nc(N)nc(C)c1Cc1ccc(OCCCN2CCN(C)CC2)cc1OC` [Example 38, 5-(2-Methoxy-4-(3-(4-methylpiperazin-1-yl)propoxy)benzyl)-6-methyl-N^4-pentylpyrimidine-2,4-diamine], for which the EC50 is 6.31 nM.

Regarding “5-(4-(2-(Dimethylamino)ethoxy)benzyl)-6-methyl-N-pentylpyrimidine-2,4-diamine [Example 3]”, the pEC50 (commonly the EC50 on a negative log10 scale, so that one unit is a factor of ten) is recorded as 7.2.

As for `COC(=O)Cc1cccc([C@@H](CCO)Nc2nc(N)nc(C)c2Cc2ccc(OCCCN(C)C)cc2)c1` [Example 34, (R)-Methyl 2-(3-(1-(2-amino-5-(4-(3-(dimethylamino)propoxy)benzyl)-6-methylpyrimidin-4-ylamino)-3-hydroxypropyl)phenyl)acetate], the EC50 is 2000 nM.

For the molecule `CCCCCNc1nc(N)nc(C)c1Cc1ccc(C(=O)OC)cc1F` [Example 18, Methyl 4-((2-amino-4-methyl-6-(pentylamino)pyrimidin-5-yl)methyl)-3-fluorobenzoate], the EC50 is 2000 nM.

For the molecule `CCC[C@@H](CO)Nc1nc(N)nc(C)c1Cc1ccc(CO)cc1OC` [Example 40, (S)-2-(2-Amino-5-(4-(hydroxymethyl)-2-methoxybenzyl)-6-methyl-pyrimidin-4-ylamino)pentan-1-ol], the EC50 was 20 nM.

Source of the values: patent US9533978B2 (AstraZeneca AB, priority 2009, dated 2017).
